The numbers were not newly measured in patent US6790965B1, “Combinatorial dihydrobenzopyran library” (Pharmacopeia Drug Discovery, Inc., priority 1994, dated 2004), which cites them from elsewhere.

For this series, the target named is bovine carbonic anhydrase (Bos taurus, UniProt P00921). The conditions noted are these: relatively weak inhibitor, displaced by increased dansylamide concentration.

SMILES strings stand for the structures.

Sequence of bovine carbonic anhydrase (P00921 whole entry): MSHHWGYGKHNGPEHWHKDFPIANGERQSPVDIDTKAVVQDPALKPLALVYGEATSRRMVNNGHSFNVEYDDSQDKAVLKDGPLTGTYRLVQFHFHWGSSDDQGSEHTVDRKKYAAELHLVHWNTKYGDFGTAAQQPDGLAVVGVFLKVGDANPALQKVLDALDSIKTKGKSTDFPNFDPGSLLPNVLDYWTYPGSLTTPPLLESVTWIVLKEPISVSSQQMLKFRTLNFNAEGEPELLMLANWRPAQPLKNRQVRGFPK

As for `NS(=O)(=O)c1cc2c(cc1Cl)N=CNS2(=O)=O` [chlorothiazide], the inhibition constant Ki (commonly the equilibrium dissociation constant of an inhibitor or competing ligand from its target) is approximately 75 nM.
